From patent US20210348119A1, “COMPOSITIONS AND METHODS FOR CELL CULTURE” (The United States of America as Represented By The …, priority 2018, published 2021)
“And” between values parts separate entries of the source, which are not always exact repeats. Identical values can stand only once. Like-named read-outs stand apart in the source and are kept apart here.

System: H9 cells
Assay: qHTS for survival of dissociated H9 cells (CellTiter-Glo, 24 hours after seeding)
Type: cell-based, human
Details: for AC50: CellTiter-Glo 24 hours after seeding, read-out: AC50 (concentration at 50% efficacy)
Source text: FIG. 2 schematically illustrates qHTS procedure.
All the screed compounds were received pre-plated at the pre-determined concentrations. […] Curve classification is explained in Huang et al. “Chemical genomics profiling of environmental chemical modulation of human nuclear receptors” Environ. Health. Perspect.

[1] = H9 cell survival normalized to 10 μM Y-27632 (taken to be 100%)
[2] = H9 cell survival, normalized to 10 μM Y-27632
[3] = Homo sapiens, H9, 24 h, H9 cell survival normalized to 10 μM Y-27632 (taken to be 100%), read-out: Max (maximum activity value from all tested concentrations)
[4] = Homo sapiens, H9, 24 h, H9 cell survival
[5] = Homo sapiens, H9, 24 h, H9 cell survival, normalized to 10 μM Y-27632, read-out: Efficacy (activity range between predicted activities at zero and infinite doses, Hill equation)

SMILES | Max (maximum activity value from all tested concentrations) [1] | Efficacy (activity range between predicted activities at zero and infinite doses, Hill equation) [2] | AC50 (H9 cell survival) | further results
CC(C)CCC(=O)CC1c2ccccc2C(=O)N1c1ccc2ccc(Cl)nc2n1 (single isomer, unassigned; (+)) [(+)-Pagoclone] | 22.94% | 0 |  | 
Oc1cccc2c(O)nccc12 [1,5-Isoquinolinediol] |  |  |  | Emax [3]: 41%; AC50 [4]: 18.4 µM; Emax [5]: 42.2%
CC1CN(S(=O)(=O)c2cccc3cnccc23)CCN1.Cl.Cl (stereo not drawn) [1-05-IsoquinolinylstilfonyI)-3-methylpiperazine dihydroehloride] | 100.6% | 102 | 20.6 µM | 
COc1cccc(CNC(=O)Nc2nc(-c3ccncc3)cs2)c1 [1-(3-methoxybenzyl)-3-(4-(pyridin-4-yl)thiazol-2-yl)urea] |  |  |  | Emax [3]: 124%; AC50 [4]: 0.147 µM; Emax [5]: 121%
CC1CNCCN1S(=O)(=O)c1cccc2cnccc12.Cl.Cl (stereo not drawn) [1-(5-Isoquinolinylsulfonyl)-2-methylpipenvine dihydrochloride] | 85.52% | 92.2 | 4.61 µM | 
C[C@]12C[C@@H](O)[C@H]3[C@@H](CC[C@@H]4C[C@@H](O)CC[C@@]43CO)[C@@]1(O)CC[C@@H]2C1=CC(=O)OC1 [19-hydroxysarmentogenin] | 21.79% | −11.5 | 0.004 µM | 
Cc1n[nH]c2ccc(-c3cncc(OC[C@@H](N)Cc4c[nH]c5ccccc45)c3)cc12 [A-443654] |  |  |  | Emax [3]: 39.8%; Emax [5]: 0%
Cc1cccc(NC(=O)c2ccc(C(F)(F)F)cc2C(=O)O)n1 [AF38469] | 22.96% | 29.6 | 5.21 µM | 
CCn1c(-c2nonc2N)nc2c(C#CCO)ncc(OCCCN)c21 [AKT Kinase Inhibitor] | 46.89% | 0 |  | 
O=C1NC(=O)C(=O)C(=O)N1 [ALLOXAN] |  |  |  | Emax (Homo sapiens, H9, 24 h, read-out: Efficacy (activity range between predicted activities at zero and infinite doses, Hill equation)): 27.2%; Emax (Homo sapiens, H9, 24 h, read-out: Max (maximum activity value from all tested concentrations)): 22.4%; AC50 (Homo sapiens, H9 cell survival): 5.21 µM
CNc1nccc(-c2cccnc2Oc2cc(C(=O)Nc3cccc(C(F)(F)F)c3)ccc2C)n1 [AMG-Tie2-1] | 57.84% | 54.5 | 18.7 µM | 
O=C(Nc1ccc(-c2ccncc2)cc1)N[C@H](CO)c1ccccc1 [AS 1892802] | 117.5% | 115 | 1.31 µM | 
Clc1ccc(C2(c3ccc(-c4cn[nH]c4)cc3)CCNCC2)cc1 [AT-7867] | 119.5% and 118.4% | 92.2 and 104 |  | 
NC[C@@](O)(c1ccc(Cl)cc1)c1ccc(-c2cn[nH]c2)cc1 [AT-13148] |  |  |  | Emax [3]: 89.8%; AC50 [4]: 0.104 µM; Emax [5]: 64.5%
CCCCOc1c(C(=O)c2c(F)cc(C)cc2F)c[nH]c2nncc1-2 [BMS-265246] |  |  |  | Emax [3]: 42.8%; AC50 [4]: 1.18 µM; Emax [5]: 33.9%
Cl.O=c1[nH]c([C@@H]2CCCN2)nc2c1oc1ccc(Cl)cc12 [BMS-863233 (XL-413)] | 22.03% | 28.3 | 26.1 µM | 
CCS(=O)(=O)N1CC(CC#N)(n2cc(-c3ncnc4[nH]ccc34)cn2)C1 [Baricitinib] |  |  |  | Emax [3]: 115%
CCCC1(C)C(C#N)(C#N)C1(C#N)C#N [CCG-2046] | 21.78% | 23.7 | 20.6 µM | 
NC1(Cc2ccc(Cl)cc2)CCN(c2ncnc3[nH]ccc23)CC1 [CCT-128930] | 106.8% | 133 | 11.8 µM | 
COc1c(Nc2ncc(Cl)c(N[C@H]3[C@@H](C(N)=O)[C@@H]4C=C[C@H]3C4)n2)ccc2c1CC[C@@H](N1CCOCC1)CC2 [CEP-28122] | 23.83% | 23.5 | 0.585 µM | 
CN1CCN(c2cccc(Nc3nc4c(-c5ccc(S(C)(=O)=O)cc5)cccn4n3)c2)CC1 [CEP-33779] | 27.79% | 25.5 | 5.9 µM | 
